According to the supplement of paper PMC11208160:

Test: recombinant UMI read abundance after kanamycin selection (control-corrected) (log10(CPM+1)); higher = more efficient recombination; extreme values may be limits of the assay; sequences stand for … in AGTGCAGAGAAAATCGGCCAGTTTTCTCTGCCTGCAGTCCGCATGCCGTGGGACCCCTTGGGTTCTAACCTGTTGCCTAGATTTATGCAGCGGACTGCCTTTCTCCCAAAGTGATAAACCGG…AGGTTGGTTTCACT; site = the 11-nt donor
Description: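 Pooled E. coli donor-specificity screen for the IS621 bridge recombinase. Each library member carries a reprogrammed 11-nt donor and a full-length LE bridge RNA expressed in cis from the natural promoter, with a paired donor-binding loop (8-nt LDG + 4-nt RDG) and a target-binding loop fixed to T5. It is co-electroporated with a T5 target plasmid; recombinase is induced with 0.07 mM IPTG and recombinants are selected on kanamycin. UMIs are counted as CPM, averaged over two biological replicates and corrected by the unselected control. Molecule = full bridge RNA written as DNA, built from the T5 scaffold: LDG = donor specificity nt 1-8, RDG = reverse complement of nt 8-11.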
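Also: IS621 bridge recombinase in Escherichia coli cells against a fixed T5 target plasmid.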

Sequence | recombinant UMI read abundance (log10)
ACAATATCATGGACCGGTTTTCCCGGTAATCCGTATTTGCA (site ACAATATCTTG) | 2.85
ACAATATCATGGACCGGTTTTCCCGGTAATCCGTATTTGCA (site ACACTATCTTG) | 1.83
ACAATATCATGGACCGGTTTTCCCGGTAATCCGTATTTGCA (site ACAGTATCTTG) | 2.35
ACAATATCATGGACCGGTTTTCCCGGTAATCCGTATTTGCA (site ACATTATCTTG) | 1.81
ACAATCTCATGGACCGGTTTTCCCGGTAATCCGTATTTGCA (site ACAATCTCTTG) | 2.51
ACAATCTCATGGACCGGTTTTCCCGGTAATCCGTATTTGCA (site ACAGTATCTTG) | 1.54
ACACACCCATGGACCGGTTTTCCCGGTAATCCGTATTTGTG (site ACACACCCTCA) | 0.012
ACACATCCATGGACCGGTTTTCCCGGTAATCCGTATTTGAA (site ACACATCCTAT) | 0.229
ACACATCCATGGACCGGTTTTCCCGGTAATCCGTATTTGAA (site ACACATCCTCT) | 0
ACACATCCATGGACCGGTTTTCCCGGTAATCCGTATTTGAA (site ACACATCCTGT) | 0
ACACATCCATGGACCGGTTTTCCCGGTAATCCGTATTTGAA (site ACACATCCTTT) | 1.72
ACACATCCATGGACCGGTTTTCCCGGTAATCCGTATTTGAG (site ACACATCCTAT) | 0.549
ACACATCCATGGACCGGTTTTCCCGGTAATCCGTATTTGAG (site ACACATCCTCT) | 0.668
ACACATCCATGGACCGGTTTTCCCGGTAATCCGTATTTGAG (site ACACATCCTGT) | 0
ACACATCCATGGACCGGTTTTCCCGGTAATCCGTATTTGAG (site ACACATCCTTT) | 0.381
ACACCTACATGGACCGGTTTTCCCGGTAATCCGTATTTGTG (site ACAACTACTCA) | 0.0154
ACACCTACATGGACCGGTTTTCCCGGTAATCCGTATTTGTG (site ACACCTACTCA) | 0.165
ACACCTACATGGACCGGTTTTCCCGGTAATCCGTATTTGTG (site ACAGCTACTCA) | 0.0267
ACACCTACATGGACCGGTTTTCCCGGTAATCCGTATTTGTG (site ACATCTACTCA) | 0.028
ACACGAGCATGGACCGGTTTTCCCGGTAATCCGTATTTGTC (site ACACGAACTGA) | 2.63
ACACGAGCATGGACCGGTTTTCCCGGTAATCCGTATTTGTC (site ACACGACCTGA) | 0
ACACGAGCATGGACCGGTTTTCCCGGTAATCCGTATTTGTC (site ACACGAGCTGA) | 2.61

Sequence | recombinant UMI read abundance (log10)
ACACGAGCATGGACCGGTTTTCCCGGTAATCCGTATTTGTC (site ACACGATCTGA) | 2.27
ACACTAGCATGGACCGGTTTTCCCGGTAATCCGTATTTGCA (site ACACTAGCTTG) | 1.05
ACACTAGCATGGACCGGTTTTCCCGGTAATCCGTATTTGCA (site ACAGTATCTTG) | 0.00925
ACACTTACATGGACCGGTTTTCCCGGTAATCCGTATTTGGG (site ACACTTACTCC) | 0.464
ACACTTCCATGGACCGGTTTTCCCGGTAATCCGTATTTGAC (site ACACATCCTGT) | 1.66
ACACTTCCATGGACCGGTTTTCCCGGTAATCCGTATTTGAC (site ACACCTCCTGT) | 1.29
ACACTTCCATGGACCGGTTTTCCCGGTAATCCGTATTTGAC (site ACACGTCCTGT) | 1.08
ACACTTCCATGGACCGGTTTTCCCGGTAATCCGTATTTGAC (site ACACTTCCTGT) | 0.338
ACAGAATCATGGACCGGTTTTCCCGGTAATCCGTATTTGCT (site ACAGAATCTAG) | 2.19
ACAGAATCATGGACCGGTTTTCCCGGTAATCCGTATTTGCT (site ACAGTATCTTG) | 0.97
ACAGAATCATGGACCGGTTTTCCCGGTAATCCGTATTTGGA (site ACAGAATCTTC) | 2.48
ACAGAATCATGGACCGGTTTTCCCGGTAATCCGTATTTGGA (site ACAGTATCTTG) | 0
ACAGAGACATGGACCGGTTTTCCCGGTAATCCGTATTTGCG (site ACAGAGACTCG) | 2.84
ACAGAGACATGGACCGGTTTTCCCGGTAATCCGTATTTGCG (site CCAGAGACTCG) | 2.19
ACAGAGACATGGACCGGTTTTCCCGGTAATCCGTATTTGCG (site GCAGAGACTCG) | 1.18
ACAGAGACATGGACCGGTTTTCCCGGTAATCCGTATTTGCG (site TCAGAGACTCG) | 2.18
ACAGATACATGGACCGGTTTTCCCGGTAATCCGTATTTGCC (site ACAGATACTGG) | 1.19
ACAGCATCATGGACCGGTTTTCCCGGTAATCCGTATTTGTA (site ACAGCATCTTA) | 2.85
ACAGCATCATGGACCGGTTTTCCCGGTAATCCGTATTTGTA (site ACAGTATCTTG) | 0
ACAGCGCCATGGACCGGTTTTCCCGGTAATCCGTATTTGTT (site ACAGCGCCTAA) | 0.431
ACAGGGCCATGGACCGGTTTTCCCGGTAATCCGTATTTGCT (site ACAGGGCCTAG) | 1.1
ACAGGTCCATGGACCGGTTTTCCCGGTAATCCGTATTTGGC (site ACAGGTCCTGC) | 1.02

Sequence | recombinant UMI read abundance (log10)
ACAGTAGCATGGACCGGTTTTCCCGGTAATCCGTATTTGCA (site ACAGTAACTTG) | 2.58
ACAGTAGCATGGACCGGTTTTCCCGGTAATCCGTATTTGCA (site ACAGTACCTTG) | 0
ACAGTAGCATGGACCGGTTTTCCCGGTAATCCGTATTTGCA (site ACAGTAGCTTG) | 2.85
ACAGTAGCATGGACCGGTTTTCCCGGTAATCCGTATTTGCA (site ACAGTATCTTG) | 2
ACAGTATCATGGACCGGTTTTCCCGGTAATCCGTATTTGCT (site ACAGTATCTAG) | 2.8
ACAGTATCATGGACCGGTTTTCCCGGTAATCCGTATTTGCT (site ACAGTATCTCG) | 1.11
ACAGTATCATGGACCGGTTTTCCCGGTAATCCGTATTTGCT (site ACAGTATCTGG) | 2.29
ACAGTATCATGGACCGGTTTTCCCGGTAATCCGTATTTGCT (site ACAGTATCTTG) | 2.22
ACAGTCTCATGGACCGGTTTTCCCGGTAATCCGTATTTGGA (site ACAGTATCTTG) | 0
ACAGTCTCATGGACCGGTTTTCCCGGTAATCCGTATTTGGA (site ACAGTCTCTTC) | 2.89
ACAGTGGCATGGACCGGTTTTCCCGGTAATCCGTATTTGCG (site ACAGTGGCTCG) | 1.93
ACAGTGTCATGGACCGGTTTTCCCGGTAATCCGTATTTGCC (site ACAGTATCTTG) | 2.05
ACAGTGTCATGGACCGGTTTTCCCGGTAATCCGTATTTGCC (site ACAGTGTCTGG) | 2.88
ACAGTTGCATGGACCGGTTTTCCCGGTAATCCGTATTTGCA (site ACAGTATCTTG) | 0
ACAGTTGCATGGACCGGTTTTCCCGGTAATCCGTATTTGCA (site ACAGTTGCTTG) | 1.81
ACAGTTTCATGGACCGGTTTTCCCGGTAATCCGTATTTGCA (site ACAGTATCTTG) | 2.55
ACAGTTTCATGGACCGGTTTTCCCGGTAATCCGTATTTGCA (site ACAGTCTCTTG) | 2.43
ACAGTTTCATGGACCGGTTTTCCCGGTAATCCGTATTTGCA (site ACAGTGTCTTG) | 1.52
ACAGTTTCATGGACCGGTTTTCCCGGTAATCCGTATTTGCA (site ACAGTTTCTTG) | 2.24
ACATACGCATGGACCGGTTTTCCCGGTAATCCGTATTTGGC (site ACATACGCTGC) | 2.78
ACATCGACATGGACCGGTTTTCCCGGTAATCCGTATTTGTG (site ACATCAACTCA) | 0.397
